# Source: patent US8268990B2, “Compounds” (AstraZeneca AB, priority 2007, dated 2012)
# Target: T1, Recombinant human TLR7 (Homo sapiens, UniProt Q9NYK1)
# T1 construct: expressed in transfected cells; host or cells: HEK293 cell line stably expressing the pNiFty2-SEAP reporter plasmid; TLR7 in vector pUNO, blasticidin selection
# T1 sequence (Q9NYK1 27-1049): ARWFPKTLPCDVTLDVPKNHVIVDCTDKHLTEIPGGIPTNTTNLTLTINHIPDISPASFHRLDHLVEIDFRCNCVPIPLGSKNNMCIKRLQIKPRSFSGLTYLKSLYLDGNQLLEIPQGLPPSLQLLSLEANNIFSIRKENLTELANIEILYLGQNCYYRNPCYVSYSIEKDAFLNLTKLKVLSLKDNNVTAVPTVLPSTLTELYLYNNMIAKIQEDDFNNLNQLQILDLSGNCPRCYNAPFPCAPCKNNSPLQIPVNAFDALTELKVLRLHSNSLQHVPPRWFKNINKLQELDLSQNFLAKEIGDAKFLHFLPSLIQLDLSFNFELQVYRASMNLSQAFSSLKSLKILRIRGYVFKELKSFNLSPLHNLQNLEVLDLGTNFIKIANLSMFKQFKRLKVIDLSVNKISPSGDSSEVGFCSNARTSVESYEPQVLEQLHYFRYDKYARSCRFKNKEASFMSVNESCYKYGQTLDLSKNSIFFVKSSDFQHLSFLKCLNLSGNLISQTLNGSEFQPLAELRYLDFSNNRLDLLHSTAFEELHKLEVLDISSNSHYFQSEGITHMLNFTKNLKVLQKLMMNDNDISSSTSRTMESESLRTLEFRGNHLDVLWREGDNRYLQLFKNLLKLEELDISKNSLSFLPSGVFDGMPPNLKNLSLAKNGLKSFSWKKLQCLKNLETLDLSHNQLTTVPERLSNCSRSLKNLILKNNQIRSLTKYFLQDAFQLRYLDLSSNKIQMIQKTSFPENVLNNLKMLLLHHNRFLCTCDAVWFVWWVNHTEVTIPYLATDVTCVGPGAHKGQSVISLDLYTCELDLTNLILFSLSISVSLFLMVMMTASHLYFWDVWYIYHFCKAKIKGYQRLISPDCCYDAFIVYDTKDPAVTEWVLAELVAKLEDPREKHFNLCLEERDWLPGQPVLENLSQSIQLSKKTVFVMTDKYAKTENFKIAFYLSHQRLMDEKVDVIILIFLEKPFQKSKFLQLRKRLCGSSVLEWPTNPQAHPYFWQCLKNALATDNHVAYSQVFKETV
# Experiment: Human TLR7 Assay (SEAP reporter);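 also: SEAP driven by an NFkB-responsive composite promoter, pEC50 read at half of each compound's own maximal SEAP induction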
# Format: cell-based
# Conditions: HEK293 cell line stably expressing human TLR7 and pNiFty2-SEAP reporter; SEAP induction after overnight incubation at 37° C., 0.1% (v/v) DMSO
row,SMILES,EC50 [nM]
1,"CCCCNc1nc(N)nc(C)c1Cc1ccc(CC(=O)OCC2CCN(C)CC2)cc1O [Example 103, (1-Methylpiperidin-4-yl)methyl 2-(4-((2-amino-4-(butylamino)-6-methylpyrimidin-5-yl)methyl)-3-hydroxyphenyl)acetate]",126
2,"CCCCNc1nc(N)nc(C)c1Sc1ccc(CC(=O)OCC2CCN(C)CC2)cc1 [Example 95, (1-Methylpiperidin-4-yl)methyl 2-(4-(2-amino-4-(butylamino)-6-methylpyrimidin-5-ylthio)phenyl)acetate]",63.1
3,"CCCCNc1nc(N)nc(C)c1Cc1ccc(CC(=O)OCC2CCN(C)CC2)cc1OC [Example 72, (1-Methylpiperidin-4-yl)methyl 2-(4-((2-amino-4-(butylamino)-6-methylpyrimidin-5-yl)methyl)-3-methoxyphenyl)acetate]",15.8
4,"CCC[C@@H](CCO)Nc1nc(N)nc(C)c1Cc1ccc(CC(=O)OC)cc1OC [Example 48, (S)-Methyl 2-(4-((2-amino-4-(1-hydroxyhexan-3-ylamino)-6-methylpyrimidin-5-yl)methyl)-3-methoxyphenyl)acetate]",2
5,"CCC[C@@H](CO)Nc1nc(N)nc(C)c1Cc1ccc(CC(=O)OC)cc1 [Example 43, (S)-Methyl 2-(4-((2-amino-4-(1-hydroxypentan-2-ylamino)-6-methylpyrimidin-5-yl)methyl)phenyl)acetate]",794
6,"CCCC[C@@H](CCO)Nc1nc(N)nc(C)c1CCCN(Cc1ccc(CC(=O)OC)cc1)C(=O)CN(C)C [Example 19, (S)-Methyl 2-(4-((N-(3-(2-amino-4-(1-hydroxyheptan-3-ylamino)-6-methylpyrimidin-5-yl)propyl)-2-(dimethylamino)acetamido)methyl)phenyl)acetate]",2510
7,"CCC[C@@H](CCO)Nc1nc(N)nc(C)c1Cc1ccc(CC(=O)OCCCCN(C)C)cc1 [Example 94, (S)-4-(Dimethylamino)butyl 2-(4-((2-amino-4-(1-hydroxyhexan-3-ylamino)-6-methylpyrimidin-5-yl)methyl)phenyl)acetate]",126
8,"CCC[C@@H](CO)Nc1nc(N)nc(C)c1Cc1ccc(CC(=O)OCCCCN(C)C)cc1 [Example 70, (S)-4-(Dimethylamino)butyl 2-(4-((2-amino-4-(1-hydroxypentan-2-ylamino)-6-methylpyrimidin-5-yl)methyl)phenyl)acetate]",1260
9,"CCCCNc1nc(N)nc(C)c1Cc1cc(CC(=O)OCC2CCN(C)CC2)ccc1OC [Example 83, (1-Methylpiperidin-4-yl)methyl 2-(3-((2-amino-4-(butylamino)-6-methylpyrimidin-5-yl)methyl)-4-methoxyphenyl)acetate]",20
10,"CCCCCNc1nc(N)nc(C)c1CCCN(Cc1ccc(CC(=O)OC)cc1)C(=O)CN1CCCC(c2ccc(S(C)(=O)=O)cc2)C1 (stereo not drawn) [Example 26, Methyl 2-(4-((N-(3-(2-amino-4-methyl-6-(pentylamino)pyrimidin-5-yl)propyl)-2-(3-(4-(methylsulfonyl)phenyl)piperidin-1-yl)acetamido)methyl)phenyl)acetate]",794

# The next lines start with the values.
row,EC50 [nM],SMILES
1,1580,"CCCC[C@@H](CCO)Nc1nc(N)nc(C)c1CCCNCc1ccc(CC(=O)OC)cc1 [Example 18, (S)-Methyl 2-(4-((3-(2-amino-4-(1-hydroxyheptan-3-ylamino)-6-methylpyrimidin-5-yl)propylamino)methyl)phenyl)acetate]"
2,1000,"CCCCNc1nc(N)nc(C)c1Cc1ccc(CC(=O)OC)cc1 [Example 41, Methyl 2-(4-((2-amino-4-(butylamino)-6-methylpyrimidin-5-yl)methyl)phenyl)acetate]"
3,631,"CCCCCNc1nc(N)nc(C)c1CCCN(Cc1cccc(CC(=O)OC)c1)C(=O)CN(C)C [Example 3, Methyl 2-(3-((N-(3-(2-amino-4-methyl-6-(pentylamino)pyrimidin-5-yl)propyl)-2-(dimethylamino)acetamido)methyl)phenyl)acetate]"
4,126,"CCCCCNc1nc(N)nc(C)c1Cc1ccc(CC(=O)OCCN2CCN(C)CC2)cc1 [Example 38, 2-(4-Methylpiperazin-1-yl)ethyl 2-(4-((2-amino-4-methyl-6-(pentylamino)pyrimidin-5-yl)methyl)phenyl)acetate]"
5,398,"CCCCCNc1nc(N)nc(C)c1CCCN(Cc1ccc(CC(=O)OC)cc1)C(=O)CN(C)CCOC [Example 15, Methyl 2-(4-((N-(3-(2-amino-4-methyl-6-(pentylamino)pyrimidin-5-yl)propyl)-2-((2-methoxyethyl)(methyl)amino)acetamido)methyl)phenyl)acetate]"
6,2510,"CCCCCNc1nc(N)nc(C)c1CCCN(Cc1cccc(CC(=O)OC)c1)C(=O)CN1CCCN(C(C)=O)CC1 [Example 8, Methyl 2-(3-((2-(4-acetyl-1,4-diazepan-1-yl)-N-(3-(2-amino-4-methyl-6-(pentylamino)pyrimidin-5-yl)propyl)acetamido)methyl)phenyl)acetate]"
7,631,"CCCC[C@@H](CO)Nc1nc(N)nc(C)c1Cc1ccc(CC(=O)OC)cc1 [Example 44, (S)-Methyl 2-(4-((2-amino-4-(1-hydroxyhexan-2-ylamino)-6-methylpyrimidin-5-yl)methyl)phenyl)acetate]"
8,794,"CCCCCNc1nc(N)nc(C)c1Cc1ccc(CC(=O)OCC2CCNCC2)cc1 [Example 67, Piperidin-4-ylmethyl 2-(4-((2-amino-4-methyl-6-(pentylamino)pyrimidin-5-yl)methyl)phenyl)acetate]"
9,501,"CCC[C@@H](CO)Nc1nc(N)nc(C)c1Cc1ccc(CC(=O)OC)cc1F [Example 47, (S)-Methyl 2-(4-((2-amino-4-(1-hydroxypentan-2-ylamino)-6-methylpyrimidin-5-yl)methyl)-3-fluorophenyl)acetate]"
10,100,"CCCCNc1nc(N)nc(C)c1Cc1ccc(CC(=O)OCCCCN(C)C)cc1O [Example 102, 4-(Dimethylamino)butyl 2-(4-((2-amino-4-(butylamino)-6-methylpyrimidin-5-yl)methyl)-3-hydroxyphenyl)acetate]"
11,63.1,"CCCCNc1nc(N)nc(C)c1Cc1ccc(CC(=O)OC)cc1O [Example 77, Methyl 2-(4-((2-amino-4-(butylamino)-6-methylpyrimidin-5-yl)methyl)-3-hydroxyphenyl)acetate]"
12,15.8,"CCCCCNc1nc(N)nc(C)c1Cc1ccc(CC(=O)OC)cc1OC [Example 21, Methyl 2-(4-((2-amino-4-methyl-6-(pentylamino)pyrimidin-5-yl)methyl)-3-methoxyphenyl)acetate]"
13,200,"CCCCCNc1nc(N)nc(C)c1Cc1ccc(CC(=O)OCC2CCN(C)CC2)cc1 [Example 60, (1-Methylpiperidin-4-yl)methyl 2-(4-((2-amino-4-methyl-6-(pentylamino)pyrimidin-5-yl)methyl)phenyl)acetate]"
14,1000,"CCCCCNc1nc(N)nc(C)c1CCCCNCc1cccc(CC(=O)OC)c1 [Example 17, Methyl 2-(3-((4-(2-amino-4-methyl-6-(pentylamino)pyrimidin-5-yl)butylamino)methyl)phenyl)acetate]"
